From publication PMC3034713, “Targeting Vascular NADPH Oxidase 1 Blocks Tumor Angiogenesis through a PPARα Mediated Mechanism” (PLoS ONE, 2011)

Tests used:
xanthine oxidase = xanthine oxidase (Homo sapiens, UniProt P47989); assay: Xanthine oxidase inhibition, concentration-response; type: biochemical
MLEC [1] = assay: Wound healing assay (endothelial cell migration); type: cell-based, mouse
Description: Wound healing assay was performed as described previously. Briefly, endothelial cells were plated in Matrigel (Becton Dickinson) precoated 96 wells plates. One day after plating the cell monolayer was scratched to make a regular wound. Cells were allowed to migrate overnight. Migration area was then measured and calculated using the Metamorph program (MDS Analytical Technologies).

NOX1 = target: T1, NOX1 (Homo sapiens, UniProt Q9Y5S8); assay: NOX inhibition in cell free assay, membranes from cells overexpressing NOX1 (Amplex Red ROS); type: biochemical
T1 construct: expressed in transfected cells
T1 sequence (Q9Y5S8 1-564): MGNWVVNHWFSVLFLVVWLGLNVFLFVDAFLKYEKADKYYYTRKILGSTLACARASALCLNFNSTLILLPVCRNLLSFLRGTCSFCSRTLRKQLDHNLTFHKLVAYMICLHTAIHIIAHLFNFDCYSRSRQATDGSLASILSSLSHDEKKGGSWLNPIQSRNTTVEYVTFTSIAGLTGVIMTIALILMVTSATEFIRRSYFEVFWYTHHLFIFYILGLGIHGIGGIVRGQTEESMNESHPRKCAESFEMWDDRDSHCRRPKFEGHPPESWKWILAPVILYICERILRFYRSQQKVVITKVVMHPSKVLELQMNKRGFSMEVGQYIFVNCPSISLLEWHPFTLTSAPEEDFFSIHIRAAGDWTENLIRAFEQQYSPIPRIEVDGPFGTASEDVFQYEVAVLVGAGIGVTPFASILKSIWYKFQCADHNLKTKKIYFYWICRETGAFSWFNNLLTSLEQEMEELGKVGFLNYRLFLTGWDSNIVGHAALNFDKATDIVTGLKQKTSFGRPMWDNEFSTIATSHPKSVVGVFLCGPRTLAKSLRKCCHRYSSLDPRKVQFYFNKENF
T1 sequence (P13498 2-195 partner limits assumed): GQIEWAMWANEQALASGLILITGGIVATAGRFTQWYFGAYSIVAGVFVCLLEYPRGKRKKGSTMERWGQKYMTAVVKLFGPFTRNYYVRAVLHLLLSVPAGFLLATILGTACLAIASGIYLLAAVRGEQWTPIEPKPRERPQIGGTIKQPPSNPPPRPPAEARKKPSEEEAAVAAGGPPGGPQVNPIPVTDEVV
Description: Membranes from NOX2 expressing PMN cells or from cells overexpressing NOX1 or NOX4 were prepared as previously described. After resuspension in sonication buffer (11% sucrose, 120 mM NaCl, 1 mM EGTA in PBS, pH 7.4 for NOX4-expressing cells) or in relax buffer (10 mM Pipes, 3 mM NaCl, 3.5 mM MgCl2, 0.1 M KCl, pH 7.4), cells were broken by sonication and centrifuged (200 g, 10 min). The supernatant was loaded onto a 17/40% (w/v) discontinuous sucrose gradient and centrifuged (150,000 g for 30 min). Membrane fractions were collected and stored at −80°C. ROS production measurements of membranes expressing different NOX subunits was determined as previously described using the Amplex Red method (Invitrogen).

LLC1 = assay: ROS production by tumor cells (DHE substrate); type: cell-based; conditions: 10 μM, 1h
Description: Supplementary file pone.0014665.s008.tif: Figure S7 Effect of GKT 136901 on tumor cells. a. LLC1 and B16F0 cell proliferation was measured by EdU incorporation and propidium iodide staining of DNA content, 24h after incubation with 10 μM of GKT136901. b. LLC1 apoptosis was measured by AnnexinV/PI staining after 24h of incubation with 10 μM of GKT136901. c. ROS levels produced by LLC1 are inhibited by GKT136901. ROS production was quantified by DHE substrate 1h after incubation with 10 μM of the inhibitor. *** p<0.001 (student t-test). (6.11 MB TIF) Click here for additional data file.

MLEC [2] = assay: Endothelial cell sprouting assay (tube-like structure formation, 3D culture); type: cell-based, mouse; conditions: MLEC, 10 µM
Description: Sprouting assay was performed as described previously. Briefly, endothelial cells were plated in 96 well plates at 8,000 cells per well in a 3D fibrin gel. Above the gel, 10% FCS containing DMEM was complemented with 200 KIU/ml of Aprotinin (Sigma). Length of branches was evaluated using the Metamorph program. Results are expressed in mm of skeleton length/number of cells.

MPO = MPO (Homo sapiens, UniProt P05164); assay: Pharmacological profiling (Cerep), Table S1
PKC a, bI, bII, d = assay: Pharmacological profiling (Cerep), Table S1
MAO-B = MAO-B (Homo sapiens, UniProt P27338); assay: Pharmacological profiling (Cerep), Table S1
MAO-B, sequence (P27338 whole entry, species assumed): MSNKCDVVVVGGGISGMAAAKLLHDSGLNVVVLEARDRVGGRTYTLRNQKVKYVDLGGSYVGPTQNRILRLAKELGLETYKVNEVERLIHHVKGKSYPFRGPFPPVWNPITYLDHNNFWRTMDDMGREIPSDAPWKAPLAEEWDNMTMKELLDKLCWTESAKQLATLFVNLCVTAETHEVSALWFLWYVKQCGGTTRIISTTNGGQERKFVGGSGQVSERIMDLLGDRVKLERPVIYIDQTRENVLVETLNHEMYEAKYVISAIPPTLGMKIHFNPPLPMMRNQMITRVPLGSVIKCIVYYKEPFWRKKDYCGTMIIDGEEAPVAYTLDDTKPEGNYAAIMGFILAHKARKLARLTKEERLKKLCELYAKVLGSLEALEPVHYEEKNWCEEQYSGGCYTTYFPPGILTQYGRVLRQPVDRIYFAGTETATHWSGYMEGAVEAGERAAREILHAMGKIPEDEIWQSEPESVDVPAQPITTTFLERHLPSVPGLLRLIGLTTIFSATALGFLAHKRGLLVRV

xanthine oxidase, sequence (P47989 whole entry, species assumed): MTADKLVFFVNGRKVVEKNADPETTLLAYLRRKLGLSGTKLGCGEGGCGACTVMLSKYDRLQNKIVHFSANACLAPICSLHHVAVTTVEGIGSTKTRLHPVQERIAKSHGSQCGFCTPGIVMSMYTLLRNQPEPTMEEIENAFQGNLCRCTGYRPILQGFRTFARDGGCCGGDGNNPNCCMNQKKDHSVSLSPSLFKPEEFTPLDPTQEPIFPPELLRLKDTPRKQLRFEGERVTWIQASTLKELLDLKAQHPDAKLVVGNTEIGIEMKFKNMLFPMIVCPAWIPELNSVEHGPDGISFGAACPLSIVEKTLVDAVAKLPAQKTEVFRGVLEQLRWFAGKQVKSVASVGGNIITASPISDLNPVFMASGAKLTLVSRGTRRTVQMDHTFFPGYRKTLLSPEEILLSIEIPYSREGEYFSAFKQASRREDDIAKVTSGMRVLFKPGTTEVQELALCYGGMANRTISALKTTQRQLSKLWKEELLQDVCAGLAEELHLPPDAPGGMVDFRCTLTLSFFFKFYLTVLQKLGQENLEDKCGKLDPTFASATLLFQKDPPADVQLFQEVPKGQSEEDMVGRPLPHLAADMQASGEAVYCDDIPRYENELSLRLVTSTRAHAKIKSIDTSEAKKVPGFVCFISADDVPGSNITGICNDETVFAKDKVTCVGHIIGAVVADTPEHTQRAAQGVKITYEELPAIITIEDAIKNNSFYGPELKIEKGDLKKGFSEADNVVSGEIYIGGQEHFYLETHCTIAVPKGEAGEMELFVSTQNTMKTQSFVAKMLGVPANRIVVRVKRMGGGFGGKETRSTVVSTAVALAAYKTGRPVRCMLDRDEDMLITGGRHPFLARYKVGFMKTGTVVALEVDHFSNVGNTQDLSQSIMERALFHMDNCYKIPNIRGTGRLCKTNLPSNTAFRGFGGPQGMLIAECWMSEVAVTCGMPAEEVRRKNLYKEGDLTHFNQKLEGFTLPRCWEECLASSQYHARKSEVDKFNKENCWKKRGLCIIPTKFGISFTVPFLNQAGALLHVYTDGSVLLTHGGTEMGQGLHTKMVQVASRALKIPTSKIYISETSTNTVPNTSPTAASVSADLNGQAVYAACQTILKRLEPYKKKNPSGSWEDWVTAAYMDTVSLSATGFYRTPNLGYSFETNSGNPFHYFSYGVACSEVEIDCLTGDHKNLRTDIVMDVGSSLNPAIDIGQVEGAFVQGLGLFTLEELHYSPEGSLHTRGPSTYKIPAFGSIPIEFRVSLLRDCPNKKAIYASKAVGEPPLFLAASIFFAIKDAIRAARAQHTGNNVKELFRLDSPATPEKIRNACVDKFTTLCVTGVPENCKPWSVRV
MPO, sequence (P05164 49-745, species assumed): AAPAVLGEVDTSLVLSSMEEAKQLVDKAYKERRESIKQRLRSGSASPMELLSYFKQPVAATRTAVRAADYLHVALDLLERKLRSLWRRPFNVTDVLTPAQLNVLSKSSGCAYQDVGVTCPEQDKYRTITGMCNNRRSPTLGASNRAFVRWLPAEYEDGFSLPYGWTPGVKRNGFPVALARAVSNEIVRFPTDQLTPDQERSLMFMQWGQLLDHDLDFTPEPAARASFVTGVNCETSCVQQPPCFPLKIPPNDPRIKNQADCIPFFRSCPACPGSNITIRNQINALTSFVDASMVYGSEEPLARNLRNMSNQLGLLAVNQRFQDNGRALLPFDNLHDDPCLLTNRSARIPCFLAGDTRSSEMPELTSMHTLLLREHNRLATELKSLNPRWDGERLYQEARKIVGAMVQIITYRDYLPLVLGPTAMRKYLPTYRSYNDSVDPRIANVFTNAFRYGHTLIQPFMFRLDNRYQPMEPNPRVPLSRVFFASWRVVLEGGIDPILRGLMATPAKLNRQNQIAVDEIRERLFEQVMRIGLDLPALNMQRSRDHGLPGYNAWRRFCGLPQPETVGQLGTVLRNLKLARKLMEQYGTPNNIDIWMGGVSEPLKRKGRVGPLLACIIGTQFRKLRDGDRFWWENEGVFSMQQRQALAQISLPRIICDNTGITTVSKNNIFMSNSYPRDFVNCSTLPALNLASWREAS

Compound: Cc1c2c(=O)n(-c3ccccc3Cl)[nH]c2cc(=O)n1Cc1ccccn1 [GKT136901]
- Ki (xanthine oxidase): > 100 µM
- endothelial cell migration (MLEC [1]; MLEC, 10 µM): inhibition
- endothelial cell migration or invasion in PPARα-deficient cells (MLEC [1]; PPARα-deficient endothelial cells, data not shown): did not affect
- extent of inhibition of oxidase activity of NOX1 (NOX1; Figure S2): completely inhibits
- Ki (NOX1; cell-free, membranes from NOX1 over-expressing cells): 0.16 ± 0.01 µM
- ROS levels produced by LLC1 (LLC1): inhibited
- tube formation (MLEC [2]): inhibition
- % Inhibition at 10 µM (MPO): 0%
- % Inhibition at 10 µM (PKC a, bI, bII, d): 0%
- % Inhibition at 10 µM (MAO-B): 0%
